The test system of assay [1] is Human colon tumor cells (Colo205). In words: Cell growth inhibition assay (CellTiter-Glo), Colo205. The class given is cell-based. The method in brief:
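Luminescent ATP read-out (CellTiter-Glo) served as a proxy for cell number; percent growth inhibition was calculated against DMSO vehicle wells. Cells were treated for 3 days at 37 °C with serially diluted compound, 0.2% DMSO final.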

Assay [2] deals with T1, BRAFV600E full-length (amino acids 2-766) (Homo sapiens, UniProt P15056, V600E).
T1 construct: His6-tagged BRAFV600E full-length (amino acids 2-766); His6; made in house; host or cells: baculovirus expression system (insect cells)
T1 sequence (P15056 2-766 V600E): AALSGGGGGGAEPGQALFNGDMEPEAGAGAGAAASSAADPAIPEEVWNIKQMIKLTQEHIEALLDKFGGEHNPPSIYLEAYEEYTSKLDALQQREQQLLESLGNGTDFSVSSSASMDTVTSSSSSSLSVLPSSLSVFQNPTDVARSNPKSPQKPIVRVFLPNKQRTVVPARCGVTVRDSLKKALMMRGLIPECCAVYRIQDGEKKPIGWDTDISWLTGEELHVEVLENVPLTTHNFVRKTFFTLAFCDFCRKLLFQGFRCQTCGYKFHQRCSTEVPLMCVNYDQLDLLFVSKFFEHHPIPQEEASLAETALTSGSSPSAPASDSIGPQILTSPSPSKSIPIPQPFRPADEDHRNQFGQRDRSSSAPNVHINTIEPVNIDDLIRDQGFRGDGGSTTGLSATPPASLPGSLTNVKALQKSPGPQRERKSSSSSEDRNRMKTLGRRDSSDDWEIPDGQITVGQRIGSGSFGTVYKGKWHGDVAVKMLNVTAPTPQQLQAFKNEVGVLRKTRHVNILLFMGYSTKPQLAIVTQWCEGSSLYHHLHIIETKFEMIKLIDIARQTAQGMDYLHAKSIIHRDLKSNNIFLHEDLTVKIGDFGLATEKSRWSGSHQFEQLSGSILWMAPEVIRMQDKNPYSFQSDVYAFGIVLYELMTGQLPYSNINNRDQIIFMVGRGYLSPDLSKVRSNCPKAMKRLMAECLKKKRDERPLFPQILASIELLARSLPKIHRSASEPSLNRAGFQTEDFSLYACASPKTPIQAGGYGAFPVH
The experiment in a line: B-Raf Accelerated MEK ATPase assay (BRAMA). The format is biochemical. The settings on record: categorized. The method, boiled down:
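Coupled-enzyme readout: ADP generated by MEK-mediated ATP hydrolysis, uncoupled from ERK phosphorylation, is linked to NADH oxidation through pyruvate kinase and lactate dehydrogenase.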

Assay [3] deals with Human melanoma cancer cells (SK-MEL-28). In words: Cell growth inhibition assay (CellTiter-Glo), SK-MEL-28. The class given is cell-based. (In general: In ATP-based viability assays light output follows the ATP content of the culture.)
Where [4] appears, read: COLO 205, Table 2b, later runs, average for the one or more runs, categorized, read-out: IC50 for Colo205.
The mark [5] stands for this setting: Table 1b, later runs, average pIC50 for the one or more runs, read-out: B-Raf pIC50 (converted).
Where [6] appears, read: SK-MEL-28, Table 3b, later runs, average for the one or more runs, categorized, read-out: IC50 for SK-MEL-28.
Setting [7] is: COLO 205, 72 h, Table 2a, 3 days incubation, read-out: Activity in Colo205 Tumor Cells.
Where [8] appears, read: B-Raf Activity, Table 1a, highest pIC50 for the one or more runs.
Where [9] appears, read: B-Raf pIC50, Table 1b, later runs, average pIC50 for the one or more runs.
Where [10] appears, read: SK-MEL-28, 72 h, Table 3a, 3 days incubation, read-out: Activity in SK-MEL-28 Tumor Cells.

Structures can show the parent of a compound that is named as a salt. Where two headings read alike, the source gives them in different places.

In the case of `Cc1nccc(-c2sc(N3CCS(=O)(=O)CC3)nc2-c2cccc(NS(=O)(=O)c3cc(F)ccc3F)c2F)n1` [Example 253, N-{3-[2-(1,1-dioxido-4-thiomorpholinyl)-5-(2-methyl-4-pyrimidinyl)-1,3-thiazol-4-yl]-2-fluorophenyl}-2,5-difluorobenzenesulfonamide], the IC50 in assay [1] (setting [4]) is below 100 nM; in assay [2] (setting [5]), 3.16 to 31.6 nM; in assay [3] (setting [6]) it was below 100 nM.
In the case of `CC(C)CNc1nccc(-c2sc(N3CCOCC3)nc2-c2cccc(NS(=O)(=O)c3cc(F)ccc3F)c2F)n1` [Example 182], the IC50 in assay [1] (setting [7]) is below 100 nM; in assay [1] (setting [4]), below 100 nM; in assay [2] (setting [8]), below 100 nM; in assay [2] (setting [9]), at most 3.16 nM; in assay [3] (setting [10]), below 100 nM; in assay [3] (setting [6]), below 100 nM.
Consider `Cc1ccccc1S(=O)(=O)Nc1cccc(-c2nc(C(C)C)sc2-c2ccnc(NCC(C)C)n2)c1F` [Example 39, N-[2-Fluoro-3-(2-(1-methylethyl)-5-{2-[(2-methylpropyl)amino]-4-pyrimidinyl}-1,3-thiazol-4-yl)phenyl]-2-methylbenzenesulfonamide], for which the IC50 in assay [1] (setting [7]) was 100 to 1000 nM; in assay [1] (setting [4]), 100 to 1000 nM; in assay [2] (setting [8]) it was below 100 nM; in assay [2] (setting [5]), 3.16 to 31.6 nM; in assay [3] (setting [10]), 100 to 1000 nM; in assay [3] (setting [6]), 100 to 1000 nM.
`CC(C)c1nc(-c2cccc(NS(=O)(=O)c3cc(F)ccc3F)c2F)c(-c2ccnc(NCCNS(C)(=O)=O)n2)s1` [Example 191]: the IC50 in assay [1] (setting [7]) was below 100 nM; in assay [1] (setting [4]), below 100 nM; in assay [2] (setting [8]) it was below 100 nM; in assay [2] (setting [9]) it was at most 3.16 nM; in assay [3] (setting [10]), below 100 nM; in assay [3] (setting [6]), below 100 nM.
On to `CC(C)(C)c1nc(-c2cccc(NS(=O)(=O)c3cc(F)ccc3F)c2Cl)c(-c2ccnc(N)n2)s1` [Example 241, N-{3-[5-(2-amino-4-pyrimidinyl)-2-(1,1-dimethylethyl)-1,3-thiazol-4-yl]-2-chlorophenyl}-2,5-difluorobenzenesulfonamide], for which the IC50 was below 100 nM in assay [1] (setting [4]), at most 3.16 nM in assay [2] (setting [9]) and below 100 nM in assay [3] (setting [6]).
Turning to `CC(C)c1nc(-c2ccc(F)c(NS(=O)(=O)c3cn(C)cn3)c2)c(-c2ccnc(NCCCS(C)(=O)=O)n2)s1` [Example 36, N-{2-Fluoro-5-[2-(1-methylethyl)-5-(2-{[3-(methylsulfonyl)propyl]amino}-4-pyrimidinyl)-1,3-thiazol-4-yl]phenyl}-1-methyl-1H-imidazole-4-sulfonamide], the IC50 is above 1000 nM in assay [1] (setting [7]), 100 to 1000 nM in assay [2] (setting [8]), 31.6 to 1000 nM in assay [2] (setting [9]) and above 1000 nM in assay [3] (setting [10]).
`CC(C)c1nc(-c2ccc(F)c(NS(=O)(=O)c3cc(F)ccc3F)c2)c(-c2ccnc(NC3CCNCC3)n2)s1` [Example 125]: the IC50 in assay [1] (setting [7]) was 100 to 1000 nM; in assay [1] (setting [4]) it was 100 to 1000 nM; in assay [2] (setting [8]) it was below 100 nM; in assay [2] (setting [5]), 3.16 to 31.6 nM; in assay [3] (setting [10]), 100 to 1000 nM; in assay [3] (setting [6]), 100 to 1000 nM.
As for `Nc1nccc(-c2sc(N3CCOCC3)nc2-c2cccc(NS(=O)(=O)N3CCOCC3)c2F)n1` [Example 50, N-{3-[5-(2-Amino-4-pyrimidinyl)-2-(4-morpholinyl)-1,3-thiazol-4-yl]-2-fluorophenyl}-4-morpholinesulfonamide], the IC50 in assay [1] (setting [7]) was above 1000 nM; in assay [1] (setting [4]) it was 1000 to 10000 nM; in assay [2] (setting [8]), 100 to 1000 nM; in assay [2] (setting [9]), 31.6 to 1000 nM; in assay [3] (setting [10]), above 1000 nM; in assay [3] (setting [6]) it was 1000 to 10000 nM.
On to `O=S(=O)(Nc1cccc(-c2nc(N3CCOCC3)sc2-c2ccncn2)c1Cl)c1cc(F)ccc1F` [Example 240, N-{2-chloro-3-[2-(4-morpholinyl)-5-(4-pyrimidinyl)-1,3-thiazol-4-yl]phenyl}-2,5-difluorobenzenesulfonamide], for which the IC50 in assay [1] (setting [4]) is below 100 nM; in assay [2] (setting [9]), at most 3.16 nM; in assay [3] (setting [6]) it was below 100 nM.
`CC(C)c1nc(-c2cccc(NS(=O)(=O)N3CCOCC3)c2)c(-c2ccnc(NCCS(C)(=O)=O)n2)s1` [Example 37, N-{3-[2-(1-Methylethyl)-5-(2-{[2-(methylsulfonyl)ethyl]amino}-4-pyrimidinyl)-1,3-thiazol-4-yl]phenyl}-4-morpholinesulfonamide trifluoroacetic acid salt]: the IC50 in assay [1] (setting [7]) was in the range of 100 to 1000 nM; in assay [1] (setting [4]), 100 to 1000 nM; in assay [2] (setting [8]), 100 to 1000 nM; in assay [2] (setting [9]) it was 31.6 to 1000 nM; in assay [3] (setting [10]), 100 to 1000 nM; in assay [3] (setting [6]) it was 100 to 1000 nM.
For the compound `CC(C)c1nc(-c2ccc(F)c(NS(=O)(=O)c3c(F)cccc3F)c2)c(-c2ccnc(NCC(F)F)n2)s1` [Example 93, N-{5-[5-{2-[(2,2-Difluoroethyl)amino]-4-pyrimidinyl}-2-(1-methylethyl)-1,3-thiazol-4-yl]-2-fluorophenyl}-2,6-difluorobenzenesulfonamide], the IC50 in assay [1] (setting [7]) was 100 to 1000 nM; in assay [1] (setting [4]), 100 to 1000 nM; in assay [2] (setting [8]), below 100 nM; in assay [2] (setting [5]), 3.16 to 31.6 nM; in assay [3] (setting [10]) it was 100 to 1000 nM; in assay [3] (setting [6]), 100 to 1000 nM.
Regarding `COCC(C)Nc1nccc(-c2sc(C(C)C)nc2-c2ccc(F)c(NS(=O)(=O)c3c(F)cccc3F)c2)n1` (stereo not shown) [Example 162], the IC50 in assay [1] (setting [7]) lay in the range of 100 to 1000 nM; in assay [1] (setting [4]), 100 to 1000 nM; in assay [2] (setting [8]), 100 to 1000 nM; in assay [2] (setting [9]) it was 31.6 to 1000 nM; in assay [3] (setting [10]), 100 to 1000 nM; in assay [3] (setting [6]), 100 to 1000 nM.
As for `CC(C)(C)c1nc(-c2cccc(NS(=O)(=O)c3cc(F)ccc3F)c2Cl)c(-c2ccnc(CCS(C)(=O)=O)n2)s1` [Example 252, N-[2-chloro-3-(2-(1,1-dimethylethyl)-5-{2-[2-(methylsulfonyl)ethyl]-4-pyrimidinyl}-1,3-thiazol-4-yl)phenyl]-2,5-difluorobenzenesulfonamide], the values for the IC50 in assay [1] (setting [4]), in assay [2] (setting [9]) and in assay [3] (setting [6]) were below 100 nM, at most 3.16 nM and below 100 nM, respectively.
For the compound `Cc1nccc(-c2sc(C3CCOCC3)nc2-c2cccc(NS(=O)(=O)c3cc(F)ccc3F)c2F)n1` [Example 246, 2,5-difluoro-N-{2-fluoro-3-[5-(2-methyl-4-pyrimidinyl)-2-(tetrahydro-2H-pyran-4-yl)-1,3-thiazol-4-yl]phenyl}benzenesulfonamide], the IC50 in assay [1] (setting [4]) is below 100 nM; in assay [2] (setting [5]), 3.16 to 31.6 nM; in assay [3] (setting [6]), below 100 nM.
`CC(C)(C)c1nc(-c2cccc(NS(=O)(=O)c3cccc(F)c3)c2F)c(-c2ccnc(N)n2)s1` [Example 218, N-{3-[5-(2-amino-4-pyrimidinyl)-2-(1,1-dimethylethyl)-1,3-thiazol-4-yl]-2-fluorophenyl}-3-fluorobenzenesulfonamide]: the IC50 was below 100 nM in assay [1] (setting [4]), at most 3.16 nM in assay [2] (setting [9]) and below 100 nM in assay [3] (setting [6]).
On to `CC(C)(C)c1nc(-c2cccc(NS(=O)(=O)c3c(F)cccc3F)c2F)c(-c2ccnc(NCCCS(C)(=O)=O)n2)s1` [Example 12, N-{3-[2-(1,1-Dimethylethyl)-5-(2-{[3-(methylsulfonyl)propyl]amino}-4-pyrimidinyl)-1,3-thiazol-4-yl]-2-fluorophenyl}-2,6-difluorobenzenesulfonamide], for which the IC50 is below 100 nM in assay [1] (setting [7]); below 100 nM in assay [1] (setting [4]); below 100 nM in assay [2] (setting [8]); at most 3.16 nM in assay [2] (setting [9]); below 100 nM in assay [3] (setting [10]); below 100 nM in assay [3] (setting [6]).
With `CC(C)(C)c1nc(-c2cccc(NS(=O)(=O)c3c(F)cccc3F)c2F)c(-c2ccnc(CCS(C)(=O)=O)n2)s1` [Example 251, N-[3-(2-(1,1-dimethylethyl)-5-{2-[2-(methylsulfonyl)ethyl]-4-pyrimidinyl}-1,3-thiazol-4-yl)-2-fluorophenyl]-2,6-difluorobenzenesulfonamide], the IC50 is below 100 nM in assay [1] (setting [4]), 3.16 to 31.6 nM in assay [2] (setting [5]) and below 100 nM in assay [3] (setting [6]).
Consider `CC(C)CNc1nccc(-c2sc(N3CCOCC3)nc2-c2cccc(NS(=O)(=O)c3c(F)cccc3F)c2F)n1` [Example 91, 2,6-Difluoro-N-{2-fluoro-3-[5-{2-[(2-methylpropyl)amino]-4-pyrimidinyl}-2-(4-morpholinyl)-1,3-thiazol-4-yl]phenyl}benzenesulfonamide], for which the IC50 in assay [1] (setting [7]) was below 100 nM; in assay [1] (setting [4]), below 100 nM; in assay [2] (setting [8]), below 100 nM; in assay [2] (setting [9]), at most 3.16 nM; in assay [3] (setting [10]), below 100 nM; in assay [3] (setting [6]) it was below 100 nM.
For `CC(C)(C)c1nc(-c2cccc(NS(=O)(=O)c3cc(F)ccc3F)c2Cl)c(-c2ccncn2)s1` [Example 228, N-{2-chloro-3-[2-(1,1-dimethylethyl)-5-(4-pyrimidinyl)-1,3-thiazol-4-yl]phenyl}-2,5-difluorobenzenesulfonamide], the IC50 is below 100 nM in assay [1] (setting [4]), at most 3.16 nM in assay [2] (setting [9]) and below 100 nM in assay [3] (setting [6]).

The record behind these values is patent US7994185B2, “Benzene sulfonamide thiazole and oxazole compounds” (Glaxo Smith Kline LLC, priority 2008, dated 2011).
